Experimental data from patent publication US10160747B2, “Compounds and methods for kinase modulation, and indications therefor” (Plexxikon Inc., priority 2016, dated 2018).

Assays:
FLT3-D835Y = molecular target: T1, FLT3-D835Y (Homo sapiens, UniProt P36888, D835Y); assay: FLT3-D835Y recombinant enzyme kinase assay (AlphaScreen); type: biochemical; settings: 8 pt, GMean
T1 construct: purchased Invitrogen PV3967
T1 sequence (P36888 27-993 D835Y): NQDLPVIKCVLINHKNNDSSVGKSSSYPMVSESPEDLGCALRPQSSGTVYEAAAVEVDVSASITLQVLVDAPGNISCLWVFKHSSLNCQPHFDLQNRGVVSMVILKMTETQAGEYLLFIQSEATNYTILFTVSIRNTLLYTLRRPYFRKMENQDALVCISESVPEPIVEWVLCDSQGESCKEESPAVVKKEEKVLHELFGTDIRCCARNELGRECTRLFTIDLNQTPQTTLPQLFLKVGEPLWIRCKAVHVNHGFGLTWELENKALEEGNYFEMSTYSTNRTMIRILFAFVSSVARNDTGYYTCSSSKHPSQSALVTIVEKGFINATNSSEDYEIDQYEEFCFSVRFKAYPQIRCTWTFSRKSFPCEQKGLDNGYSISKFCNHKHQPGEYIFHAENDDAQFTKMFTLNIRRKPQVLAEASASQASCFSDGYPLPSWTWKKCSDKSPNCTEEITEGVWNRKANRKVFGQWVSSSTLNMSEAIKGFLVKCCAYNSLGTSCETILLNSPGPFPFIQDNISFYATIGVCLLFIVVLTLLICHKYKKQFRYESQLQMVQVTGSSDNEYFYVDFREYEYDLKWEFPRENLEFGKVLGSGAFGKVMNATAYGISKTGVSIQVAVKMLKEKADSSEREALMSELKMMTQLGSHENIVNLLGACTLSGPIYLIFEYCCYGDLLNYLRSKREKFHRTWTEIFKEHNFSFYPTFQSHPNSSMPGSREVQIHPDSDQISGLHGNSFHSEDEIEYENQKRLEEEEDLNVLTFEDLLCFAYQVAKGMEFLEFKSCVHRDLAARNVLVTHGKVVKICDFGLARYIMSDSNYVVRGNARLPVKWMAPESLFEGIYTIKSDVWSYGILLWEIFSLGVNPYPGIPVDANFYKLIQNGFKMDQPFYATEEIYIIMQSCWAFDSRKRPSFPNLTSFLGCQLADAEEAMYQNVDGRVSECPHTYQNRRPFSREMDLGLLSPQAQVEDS
Outline: (§1)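 Enzyme plus biotinylated poly(Glu4-Tyr) substrate (30 nM) mixed with compound, then ATP added. Donor beads went in for 20 min at room temperature, then PY20 acceptor beads for 60 min. AlphaScreen read; ATP was 10 μM for FLT3-ITD/D835Y and 100 μM for c-KIT.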

FLT3-ITD = molecular target: T2, FLT3-ITD (Homo sapiens, UniProt P36888); assay: FLT3-ITD recombinant enzyme kinase assay (AlphaScreen); type: biochemical; settings: 8 pt; read-out: FLT3_ITD 8 pt: IC50
T2 sequence (P36888 1-993): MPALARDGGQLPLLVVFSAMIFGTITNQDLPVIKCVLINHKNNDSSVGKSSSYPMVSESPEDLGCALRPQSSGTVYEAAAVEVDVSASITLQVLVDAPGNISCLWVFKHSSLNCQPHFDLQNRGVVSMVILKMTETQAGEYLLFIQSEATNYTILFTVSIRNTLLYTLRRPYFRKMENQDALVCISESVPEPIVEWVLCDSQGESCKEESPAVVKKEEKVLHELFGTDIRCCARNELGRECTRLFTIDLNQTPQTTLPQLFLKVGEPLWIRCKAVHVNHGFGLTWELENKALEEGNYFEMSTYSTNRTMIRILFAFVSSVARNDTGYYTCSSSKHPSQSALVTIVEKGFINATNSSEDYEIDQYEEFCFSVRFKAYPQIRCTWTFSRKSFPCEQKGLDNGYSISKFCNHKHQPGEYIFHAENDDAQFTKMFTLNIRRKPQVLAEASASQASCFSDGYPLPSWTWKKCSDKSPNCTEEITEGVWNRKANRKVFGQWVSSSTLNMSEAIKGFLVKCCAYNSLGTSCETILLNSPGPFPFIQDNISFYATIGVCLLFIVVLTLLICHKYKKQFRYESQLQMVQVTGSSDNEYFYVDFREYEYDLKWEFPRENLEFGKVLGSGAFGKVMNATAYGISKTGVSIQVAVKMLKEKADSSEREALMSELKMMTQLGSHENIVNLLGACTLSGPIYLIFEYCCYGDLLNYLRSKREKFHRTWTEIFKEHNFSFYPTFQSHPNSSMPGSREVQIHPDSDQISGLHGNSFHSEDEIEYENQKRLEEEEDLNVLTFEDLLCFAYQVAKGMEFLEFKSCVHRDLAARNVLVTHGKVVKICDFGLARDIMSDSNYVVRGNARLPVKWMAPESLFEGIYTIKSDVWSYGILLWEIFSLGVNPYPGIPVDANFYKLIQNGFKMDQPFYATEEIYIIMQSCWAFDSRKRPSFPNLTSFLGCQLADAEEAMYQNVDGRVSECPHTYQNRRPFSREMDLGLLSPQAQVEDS
Outline: as §1

IC50 (FLT3-D835Y) [µM] | IC50 (FLT3-ITD) [µM] | Structure (SMILES)
0.0001 to 10 | 0.0001 to 10 | Cn1cnc(Nc2ncc(-c3ccc(CC(=O)Nc4cncc(C(F)(F)F)c4)c(F)c3)cn2)c1 [Compound P-0052, 2-[2-fluoro-4-[2-[(1-methylimidazol-4-yl)amino]pyrimidin-5-yl]phenyl]-N-[5-(trifluoromethyl)-3-pyridyl]acetamide]
0.0001 to 10 | 0.0001 to 10 | O=C(Cc1cc(F)c(-c2cnc(Nc3cnn4ccccc34)nc2)cc1F)Nc1cncc(C(F)(F)F)c1 [Compound P-0075, 2-[2,5-difluoro-4-[2-(pyrazolo[1,5-a]pyridin-3-ylamino)pyrimidin-5-yl]phenyl]-N-[5-(trifluoromethyl)-3-pyridyl]acetamide]
0.0001 to 10 | 0.0001 to 10 | O=C(Cc1ccc(-c2cnc3[nH]cc(F)c3c2)cc1F)Nc1cncc(C(F)(F)F)c1 [Compound P-0053, 2-[2-fluoro-4-(3-fluoro-1H-pyrrolo[2,3-b]pyridin-5-yl)phenyl]-N-[5-(trifluoromethyl)-3-pyridyl]acetamide]
0.0001 to 10 | 0.0001 to 10 | COc1ncc(NC(=O)Cc2ccc(-c3cnc4[nH]cc(C(=O)C5CC5)c4c3)cc2F)cc1C(F)(F)F [Compound P-0036, 2-[4-[3-(cyclopropanecarbonyl)-1H-pyrrolo[2,3-b]pyridin-5-yl]-2-fluoro-phenyl]-N-[6-methoxy-5-(trifluoromethyl)-3-pyridyl]acetamide]

Continued, molecule first:

Structure (SMILES) | IC50 (FLT3-D835Y) [µM] | IC50 (FLT3-ITD) [µM]
O=C(Cc1ccc(-c2cnc(Nc3cnn4ccccc34)nc2)c(F)c1)Nc1cncc(C(F)(F)F)c1 [Compound P-0071, 2-[3-fluoro-4-[2-(pyrazolo[1,5-a]pyridin-3-ylamino)pyrimidin-5-yl]phenyl]-N-[5-(trifluoromethyl)-3-pyridyl]acetamide] | 0.0001 to 10 | 0.0001 to 10
COc1nn(C[C@H](C)O)cc1Nc1ncc(-c2ccc(CC(=O)Nc3cncc(C(F)(F)F)c3)c(F)c2)cn1 [Compound P-0050, 2-[2-fluoro-4-[2-[[1-[(2S)-2-hydroxypropyl]-3-methoxy-pyrazol-4-yl]amino]pyrimidin-5-yl]phenyl]-N-[5-(trifluoromethyl)-3-pyridyl]acetamide] | 0.0001 to 10 | 0.0001 to 10
Cc1ncc(NC(=O)Cc2ccc(-c3cnc4[nH]cc(F)c4c3)cc2F)cc1C(F)(F)F [Compound P-0062, 2-[2-fluoro-4-(3-fluoro-1H-pyrrolo[2,3-b]pyridin-5-yl)phenyl]-N-[6-methyl-5-(trifluoromethyl)-3-pyridyl]acetamide] | 0.0001 to 10 | 0.0001 to 10
Cn1cc(Nc2ncc(-c3ccc(CC(=O)Nc4cncc(C(F)(F)F)c4)c(F)c3)cn2)cn1 [Compound P-0084, 2-[2-fluoro-4-[2-[(1-methylpyrazol-4-yl)amino]pyrimidin-5-yl]phenyl]-N-[5-(trifluoromethyl)-3-pyridyl]acetamide] | 0.0001 to 10 | 0.0001 to 10
O=C(Cc1ccc(-c2cnc(Nc3cnn4ccccc34)nc2)cc1)Nc1cncc(C(F)(F)F)c1 [Compound P-0074, 2-[4-[2-(pyrazolo[1,5-a]pyridin-3-ylamino)pyrimidin-5-yl]phenyl]-N-[5-(trifluoromethyl)-3-pyridyl]acetamide] | 0.0001 to 10 | 0.0001 to 10
Cc1ncc(NC(=O)Cc2ccc(-c3cnc4[nH]nc(C5CC5)c4c3)cc2F)cc1C(F)(F)F [Compound P-0066, 2-(4-(3-cyclopropyl-1H-pyrazolo[3,4-b]pyridin-5-yl)-2-fluorophenyl)-N-(6-methyl-5-(trifluoromethyl)pyridin-3-yl)acetamide] | 0.0001 to 10 | 0.0001 to 10
COc1ncc(NC(=O)Cc2cc(F)c(-c3cnc4[nH]cc(F)c4c3)cc2F)cc1C(F)(F)F [Compound P-0051, 2-[2,5-difluoro-4-(3-fluoro-1H-pyrrolo[2,3-b]pyridin-5-yl)phenyl]-N-[6-methoxy-5-(trifluoromethyl)-3-pyridyl]acetamide] | 0.0001 to 10 | 0.0001 to 10
